From the supplement of paper PMC8988213
Where a name gives a salt, the structure may show the parent alone.

Columns and labels:
[1] = tested on: ID188 patient-derived PDAC 2D line (pre-FOLFIRINOX); assay: normalised area under dose-response curve (viability relative to DMSO, 7 doses up to 10 µM) (fraction (AUC)); higher = less sensitive (more viability retained); conditions: 72 h; top dose: 10 µM
How it was run: (§1)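 Patient-derived 2D PDAC cells grown out from organoids were seeded robotically at 1,500–3,000 cells/well in 96-well plates and incubated overnight at 37°C, 5% CO2. SelleckChem library compounds were added at seven concentrations (3-fold dilution series, highest 10 µM) for 72 h. CellTiter-Glo luminescence was read after 10 min. Viability was normalised to the DMSO control, and area under the dose-response curve was derived with the GRmetrics R package.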

[2] = tested on: ID211 patient-derived PDAC 2D line (post-FOLFIRINOX); assay: as above; conditions: 72 h; top dose: 10 µM
How it was run: as §1

## CN(C)CCCNC(=O)c1ccc(-c2cc(O)c3ncccc3c2)cc1 [ML324]
[1]
  normalised area under dose-response curve: 0.953
[2]
  normalised area under dose-response curve: 0.774

## COc1cc2ncnc(Oc3cccc(NC(=O)Nc4cc(C(C)(C)C(F)(F)F)on4)c3)c2cc1OC
[1]
  normalised area under dose-response curve: 0.948
[2]
  normalised area under dose-response curve: 0.832

## CN(C(=O)c1ccc(F)cc1C(F)(F)F)C1CCN(c2nnc(-c3ccnn3C)c3ccccc23)CC1
[1]
  normalised area under dose-response curve: 0.939
[2]
  normalised area under dose-response curve: 0.855

## CCCCCCCCCCCCc1ccc(S(=O)(=O)Nc2nncs2)cc1 [PHT-427]
[1]
  normalised area under dose-response curve: 0.871
[2]
  normalised area under dose-response curve: 0.931

## Cc1cc(-c2nc(-c3ccc(OC(F)(F)F)cc3)no2)nn1Cc1ccnc(N2CCN(C3CC3)CC2)c1 [BAY 87-2243]
[1]
  normalised area under dose-response curve: 0.574
[2]
  normalised area under dose-response curve: 0.794

## Cc1cc(Nc2ccc(NC(=O)c3ccc(Nc4ccnc5ccccc45)cc3)cc2)nc(N)n1 [SGI-1027]
[1]
  normalised area under dose-response curve: 0.662
[2]
  normalised area under dose-response curve: 0.569

## NC(=O)c1ccc2nc(-c3ccc(Oc4ccc(Cl)cc4)cc3)[nH]c2c1 [Chk2 Inhibitor II (BML-277)]
[1]
  normalised area under dose-response curve: 0.967
[2]
  normalised area under dose-response curve: 0.865

## OCc1ccc(-c2ccc(-c3ccc(CO)s3)o2)s1
[1]
  normalised area under dose-response curve: 0.917
[2]
  normalised area under dose-response curve: 0.896

## Nc1ccn([C@@H]2O[C@H](CO)[C@@H](O)C2(F)F)c(=O)n1 [Gemcitabine HCl]
[1]
  normalised area under dose-response curve: 0.57
[2]
  normalised area under dose-response curve: 0.583

## O=C(Nc1cccnc1)N1CCC(Cc2cccc(Oc3ccc(C(F)(F)F)cn3)c2)CC1 [PF-3845]
[1]
  normalised area under dose-response curve: 0.905
[2]
  normalised area under dose-response curve: 0.912

## FC(F)c1nc2ccccc2n1-c1nc(N2CCOCC2)nc(N2CCOCC2)n1 [ZSTK474]
[1]
  normalised area under dose-response curve: 0.712
[2]
  normalised area under dose-response curve: 0.642

## CC[C@H](C)n1cc(C)c2c(C(=O)NCc3c(C)cc(C)[nH]c3=O)cc(-c3ccc(N4CCNCC4)nc3)cc21 [GSK126]
[1]
  normalised area under dose-response curve: 1.02
[2]
  normalised area under dose-response curve: 0.95

## CCc1c2c(nc3ccc(OC(=O)N4CCC(N5CCCCC5)CC4)cc13)-c1cc3c(c(=O)n1C2)COC(=O)[C@]3(O)CC [Irinotecan HCl Trihydrate]
[1]
  normalised area under dose-response curve: 0.847
[2]
  normalised area under dose-response curve: 0.807

## C/C(=N\NC(=S)N1CCC1)c1ccccn1
[1]
  normalised area under dose-response curve: 0.366
[2]
  normalised area under dose-response curve: 0.138

## Cc1cc(Nc2nc(N[C@@H](C)c3ncc(F)cn3)ncc2Cl)[nH]n1 [AZD1480]
[1]
  normalised area under dose-response curve: 0.952
[2]
  normalised area under dose-response curve: 0.766

## CNC(=O)c1cc(Oc2ccc(NC(=O)Nc3ccc(Cl)c(C(F)(F)F)c3)c(F)c2)ccn1 [Regorafenib (BAY 73-4506)]
[1]
  normalised area under dose-response curve: 0.775
[2]
  normalised area under dose-response curve: 0.936

## O=C(O)CCNc1cc(N2CCc3ccccc3CC2)nc(-c2ccccn2)n1 [GSK J1]
[1]
  normalised area under dose-response curve: 1
[2]
  normalised area under dose-response curve: 0.832

## CN(C)CC#Cc1ccc(OCCCc2sc(N3CCc4cccc(C(=O)Nc5nc6ccccc6s5)c4C3)nc2C(=O)O)c(F)c1
[1]
  normalised area under dose-response curve: 0.789
[2]
  normalised area under dose-response curve: 0.592

## C/C(=N\NC(=O)c1cccc(S(=O)(=O)N2CCOCC2)c1)c1cc(Cl)ccc1O [SP2509]
[1]
  normalised area under dose-response curve: 0.86
[2]
  normalised area under dose-response curve: 0.824

## N#Cc1c(O)c2c(-c3ccc(-c4ccccc4O)cc3)csc2[nH]c1=O
[1]
  normalised area under dose-response curve: 0.977
[2]
  normalised area under dose-response curve: 0.782
